Data: publication PMC10743451, “Addressing the Binding Mechanism of the Meprin and TRAF-C Homology Domain of the Speckle-Type POZ Protein Using Protein Engineering” (International Journal of Molecular Sciences, 2023)

Test system: SPOP MATH domain
Assay: Linear free energy relationship (LFER) analysis of binding to SPOP MATH wildtype and mutant variants
Conditions: LFER over MATH wildtype and mutant variants
Source text: A powerful method used to address the mechanism of binding between ligands is to study the effect of structural perturbation on the transition and ground states. This approach, classically denoted as Leffler or Linear Free Energy Relationship (LFER) analysis, aims at analyzing the correlation of the change in activation free energy to the change in equilibrium free energy; LFER analysis has been used in organic chemistry, protein folding, enzymology, and protein–protein interaction studies to decipher the position of the transition state of a reaction along the reaction coordinates. The analysis of the dependences of the microscopic association and dissociation rate constants over the equilibrium constant of each MATH variant to Puc and MacroH2A are reported in Figure 5.
Figure 5 Linear free energy relationship for the binding of MATH wildtype and mutant variants to the peptides Puc (panels (A,B)) and MacroH2A (panels (C,D)). Panels (A,C) represent the dependences of the microscopic association rate constant kon on the equilibrium dissociation constant. Panels (B,D) represent the dependences of the microscopic dissociation rate constant koff on the equilibrium dissociation constant. The blue and red dots represent the dependences of kon or koff on the equilibrium dissociation constant (KD), respectively.

Row | Sequence | slope of log koff versus log KD | slope of log kon vs. log KD
1 | DEVTSTTSSS [Puc] | 0.36 ± 0.09 | −0.64 ± 0.09
2 | KAASADSTTEGTPAD [MacroH2A] | 0.02 ± 0.11 | −0.98 ± 0.11
